According to US10898548B2, “Modulators of protein tyrosine phosphatase and uses thereof” (LEUVAS THERAPEUTICS, priority 2015, dated 2021):
Each block holds one molecule with its values, some of them ahead of it.

Experiments:
PTPRG = assay: in vitro phosphatase activity (pNPP) on membranes from human primary monocytes; type: biochemical; details: orthovanadate treatment
Description: We first tested the biochemical activity of the fusion peptide by performing in vitro assays of phosphatase activity on purified membranes isolated from human primary monocytes compared to membranes isolated from human primary polymorphonuclear cells (PMNs). Human primary monocytes and polymorphonuclear (PMNs) cells were isolated from whole blood of healthy donors. Purity of monocyte preparation was evaluated by flow cytometry after staining with fluorescein isothiocyanate (FITC)-conjugated anti-CD14 antibody and was more than 95%. Isolated cells were kept at 37° C. in standard adhesion buffer (PBS, 1 mM CaCl2, 1 mM MgCl2, 10% FBS, pH 7.2) and used within 1 h.
The phosphatase activity in membrane fractions isolated from human monocytes and PMNs was assessed. […] Cells were then sonicated twice (6 sec, 15% W) and centrifuged at 2000 rpm for 10 minutes. The supernatants were collected and centrifuged at 28000 rpm for 60 minutes. After centrifugation, the supernatants were discarded, and the membrane pellets were dissolved in 20 mM tris pH 7.4. Equal amount of membrane fractions were added to pNPP buffer containing 20 mM tris, 10 mM DTT and 2 mM pNPP. Following, DMSO and peptides were added. After 30 minutes of incubation, levels of de-phosphorylation, in presence or absence of orthovanadate, were measured at 405 nm by a plate reader. Values are absorbance at 405 nn shown as percent fold increase over the blank; mean values of three experiments are shown. *p<0.001 vs vehicle (DMSO).

JAK2 (pYpY1007/1008) = assay: p-JAK2 ELISA on monocytes; type: cell-based, human; details: monocytes, Resting 100.0, in % (unit assumed)
Excerpt: (§1) JAK2 regulation by PTPRG as assessed through the high-throughput phospho-proteomics analysis evidenced that PTPRG activation (Example 4, Table 9 and 10) provides a useful example of the exploitation of this analysis system for identification of targets and unexpected indications/uses for known and novel agents that regulate the phoshoproteome. […] Furthermore, the capability of fMLP to trigger JAKs activation has never been observed. The results described in Example 4 unexpectedly implicate JAK2 de-phosphorylation by PTPRG as playing a role in the anti-adhesive role of PTPRG on monocytes. To test this system-generated hypothesis we first set out to define the role of JAK2 in fMLP-triggered rapid adhesion in monocytes. Time course experiments, either performed with ELISA assay or Western Blot. Briefly, purified human monocytes were treated with buffer (resting) or with 50 nM fMLP for the indicated times (Table 12), and the phosphorylation was assessed by p-Jak2 elisa and Western Blot analysis. The JAK2 activation was determined with Elisa Kit JAK2 (pYpY1007/1008) (Invitrogen). Briefly, cells were stimulated with agonist and lysed following manufacturer's protocol; levels of phospho-JAK2 were quantified (absorbance at 450 nm) with a micro-well plate reader (Victor™ X5 Multilabel Plate Reader, Perkin Elmer). For Western blot analysis, cells were lysed in ice-cold 1% Nonidet P-40 buffer, containing phosphatase inhibitors and complete protease inhibitor cocktail (Roche). Total cell lysates were quantified by Bradford assay (Bio-Rad). Equal amounts of total lysates or of isolated membranes (as described in Example 1) were subjected to 10% SDS-PAGE and then blotted. After incubation with anti-PTPRG, anti gp91^Phox, anti phospho-JAK2, anti JAK2 and HRP-linked secondary antibodies (GE Healthcare), immunoreactive bands were visualized by ECL detection (EMD Millipore). Intensities of band signals were quantified by densitometric analysis (Quantity One, Bio-Rad) by using ImageQuant Las4000. Data are mean value of three experiments; the relative ratio of the band intensity of phosphor-JAK2 was normalized to the level of JAK2 band intensities.
Briefly, p-JAK2 ELISA assay on human monocytes treated with buffer (CTRL=control), 50 μM P1-WD, P1 or P1-WD scrambled peptides (Table 17), or with buffer (CTRL=control), 0.5 uM TAT-ICD or 50 μM TAT peptide (Table 18) for 1 hour at 37° C. and stimulated with 50 nM fMLP for 90 sec. Shown are percentages of fold increases over the control; mean values of 3 experiments in triplicate.

JAK2 = target: T1, JAK2 (Homo sapiens, UniProt O60674); assay: phospho-JAK2 Western Blot on monocytes; type: cell-based; details: monocytes, Resting 20.2
T1 construct: endogenous in cells; host or cells: human primary monocytes
T1 sequence (O60674 whole entry): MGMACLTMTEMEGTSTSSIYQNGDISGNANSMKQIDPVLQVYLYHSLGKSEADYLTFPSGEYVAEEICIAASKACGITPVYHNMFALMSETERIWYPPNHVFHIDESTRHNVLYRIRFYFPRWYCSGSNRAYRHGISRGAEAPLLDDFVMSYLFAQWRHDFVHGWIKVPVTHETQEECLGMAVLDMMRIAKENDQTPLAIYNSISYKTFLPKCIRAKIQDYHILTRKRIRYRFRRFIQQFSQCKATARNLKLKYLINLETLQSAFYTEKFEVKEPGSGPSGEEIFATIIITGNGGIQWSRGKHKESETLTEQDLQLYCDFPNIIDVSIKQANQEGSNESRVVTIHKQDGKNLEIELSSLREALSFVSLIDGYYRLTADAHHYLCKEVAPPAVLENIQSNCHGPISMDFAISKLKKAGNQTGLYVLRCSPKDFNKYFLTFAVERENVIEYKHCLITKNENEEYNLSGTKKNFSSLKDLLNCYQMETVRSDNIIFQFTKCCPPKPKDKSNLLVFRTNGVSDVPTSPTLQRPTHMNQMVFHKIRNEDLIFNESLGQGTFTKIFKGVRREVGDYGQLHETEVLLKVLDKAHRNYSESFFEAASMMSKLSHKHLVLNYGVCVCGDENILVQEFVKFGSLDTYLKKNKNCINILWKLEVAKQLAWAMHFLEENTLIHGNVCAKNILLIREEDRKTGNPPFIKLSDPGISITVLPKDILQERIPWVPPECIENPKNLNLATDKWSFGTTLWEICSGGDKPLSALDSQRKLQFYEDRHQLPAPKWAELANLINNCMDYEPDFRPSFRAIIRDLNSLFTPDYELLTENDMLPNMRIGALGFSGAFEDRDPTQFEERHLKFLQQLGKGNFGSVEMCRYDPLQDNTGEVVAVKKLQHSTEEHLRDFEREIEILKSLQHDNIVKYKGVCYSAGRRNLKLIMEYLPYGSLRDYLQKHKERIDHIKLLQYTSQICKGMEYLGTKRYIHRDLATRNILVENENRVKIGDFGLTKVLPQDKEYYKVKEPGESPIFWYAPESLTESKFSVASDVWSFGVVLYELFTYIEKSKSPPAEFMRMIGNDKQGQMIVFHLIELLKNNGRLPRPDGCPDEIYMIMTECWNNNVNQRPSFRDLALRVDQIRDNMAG
Excerpt: as §1
To evaluate whether JAK2 mediates fMLP-triggered rapid adhesion in human monocytes, we tested the capability of three JAK inhibitors, AG490, WHI-P154 and P1-TKIP peptide, to block adhesion triggering. Briefly, Monocytes were treated with buffer (resting and Control=CTRL), 100 μM AG490, 40 μM P1 or P1-TKIP peptides, or 200 μM WHI-P154 for 1 hour at 37° C. and stimulated with 50 nM fMLP for 180 sec. Cell lysates were probed with anti phospho-JAK2 and with anti JAK2. Western Blot immuoreactive band quantification; the relative ratio of the band intensity of phospho-JAK2 was normalized to the level of JAK2 band intensities; mean values of three experiments (Table 13).
The impact of TAT-ICD and P1-WD on JAK2 activation by chemoattractants was also evaluated by Western Blot analysis. Briefly, monocytes were treated with buffer (Resting, CTRL), 0.5 uM TAT-ICD, 50 μM TAT peptide, 50 μM P1-WD, P1 or P1-WD scrambled peptides for 1 hour at 37° C. and stimulated with 50 nM fMLP for 180 sec (the resting cells were not stimulated with fMLP). Total lysates were probed with anti phospho-JAK2 or with anti JAK. Western Blot immunoreactive bands were quantified and the relative ratio of the band intensity of phospho-JAK2 was normalized to the level of JAK2 band intensities; data are mean value and standard deviation of three experiments (Table 19).

human primary monocytes [1] = assay: static adhesion of fMLP-stimulated monocytes to ICAM-1; type: cell-based; set-up: adherent monocytes on ICAM-1: unit not given here
Description: We investigated the functional effect of PTPRG activation on integrin activation and mediated adhesion by chemoattractants in human primary monocytes and PMNs in a static and flow adhesion assays. Briefly, human primary monocytes or polymorphonuclear cells were suspended at 5×10^6/ml in standard adhesion buffer. Adhesion assays were performed on 18-well glass slides coated with 1 mg/ml human fibrinogen or with 1 μg/ml human ICAM-1 in PBS; 20 μl of cell suspension were added to the coated wells and stimulated for 1 min at 37° C. with 5 μl of fMLP, 0.05 μM final concentration. After rapid washing, adherent cells were fixed in ice-cold 1.5% glutaraldehyde in PBS, and still images of adherent cells in 0.2 mm^2 fields were acquired al 20× phase contrast magnification, NA 0.40, with a charge-coupled device camera (ICD-42B; Ikegami) connected to an inverted microscope (IX50; Olympus). Image acquisition and computer-assisted enumeration of adherent cells were performed with ImageJ (National Institute of Health).
We then investigated the functional effect of TAT-ICD on integrin activation and mediated adhesion by chemoattractants. Static adhesion assays were performed as described in Example 2. […] Data are mean number of adherent cells in 5 experiments in triplicate.
To evaluate whether JAK2 mediates chemoattractant-induced adhesion of human monocytes to beta-2 integrin substrates human monocytes were treated control buffer or P1 or with the three JAK inhibitors. Briefly, human monocytes were treated with buffer (CTRL=control), or 40 μM P1 or P1-TKIP peptides, 100 μM AG490 or 200 μM WHI-P154 for 1 hour at 37° C. and stimulated with 50 nM fMLP for 60 sec.; data are mean and standard deviation (SD) of 6 experiments in triplicate.
Human primary monocytes were isolated from buffy coats from healthy donors and pre-incubated for 30 minutes at room temperature with our without 0.075 micromolar PTPX. Standard adhesion assays on ICAM-1 coated glass slides. Cell suspensions were added to the coated wells for 1 minute, stimulated for 1 minute at 37° C. with […] fMLP. Non-adherent cells were washed away and adherent cells were fixed in ice-cold 1.5% glutaraldehyde in PBS and adherent cells were counted using computer assisted automatic quantification. Data are from a representative experiment and are the mean and standard deviation of 24 measurements per condition (Table 35).

human primary monocytes [2] = assay: as above; type: cell-based; set-up: unit not given here; details: 0.075 micromolar PTPX, 30 minutes; 50 nM fMLP; Control 212.8

Molecule: [Na+].[Na+].[Na+].[O]=[V]([O-])([O-])[O-] [Orthovanadate, Na3VO4, reference compound]
phosphatase activity elicited in membranes (PTPRG): completely prevented phosphatase activity

phospho-JAK2 band intensity normalized to JAK2, Western Blot (JAK2; 50 nM fMLP 90″): 37.8
phospho-JAK2 band intensity normalized to JAK2, Western Blot (JAK2; 50 nM fMLP 120″): 46.7
phospho-JAK2 band intensity normalized to JAK2, Western Blot (JAK2; 50 nM fMLP 180″): 58.5
Molecule: fMLP
phospho-JAK2 level, ELISA (JAK2 (pYpY1007/1008); 50 nM fMLP 90″): 107.3
phospho-JAK2 level, ELISA (JAK2 (pYpY1007/1008); 50 nM fMLP 120″): 128.3
phospho-JAK2 level, ELISA (JAK2 (pYpY1007/1008); 50 nM fMLP 180″): 155.7
increase in monocyte adhesion to ICAM-1 (human primary monocytes [1]; stimulation with fMLP vs no agonist): approximately 10 fold

Molecule: PTPx: external domain of PTPRG, amino acids 20-736, produced with a histidine tag
adherent monocytes on ICAM-1 (human primary monocytes [1]; 0.075 micromolar PTPX, 30 minutes, No Agonist, Control 22.2): 3.4
adherent monocytes on ICAM-1 (human primary monocytes [2]): 32.7
